{"source": "paper PMC12700550", "about": "“DLL4^+ neutrophils promote Notch1-mediated endothelial PANoptosis to exacerbate acute lung injury in sepsis” (The Journal of Clinical Investigation, 2025)", "molecules": {"B1": {"name": "eCIRP: extracellular cold-inducible RNA-binding protein; recombinant murine, produced in our laboratory (protein, UniProt P60824 1-172, looked up)", "Cold-inducible RNA-binding …": "MASDEGKLFVGGLSFDTNEQALEQVFSKYGQISEVVVVKDRETQRSRGFGFVTFENIDDAKDAMMAMNGKSVDGRQIRVDQAGKSSDNRSRGYRGGSAGGRGFFRGGRSRGRGFSRGGGDRGYGGGRFESRSGGYGGSRDYYASRSQGGSYGYRSSGGSYRDSYDSYATHNE"}}, "key": {"rmNotch1": {"target": "T1, rmNotch1 (Mus musculus, UniProt Q01705)", "T1 construct": "purchased R&D Systems 5267-TK (rmNotch1); 1389-D4-050/CF (rmDLL4)", "T1 sequence (Q9JI71 28-525 partner limits assumed)": "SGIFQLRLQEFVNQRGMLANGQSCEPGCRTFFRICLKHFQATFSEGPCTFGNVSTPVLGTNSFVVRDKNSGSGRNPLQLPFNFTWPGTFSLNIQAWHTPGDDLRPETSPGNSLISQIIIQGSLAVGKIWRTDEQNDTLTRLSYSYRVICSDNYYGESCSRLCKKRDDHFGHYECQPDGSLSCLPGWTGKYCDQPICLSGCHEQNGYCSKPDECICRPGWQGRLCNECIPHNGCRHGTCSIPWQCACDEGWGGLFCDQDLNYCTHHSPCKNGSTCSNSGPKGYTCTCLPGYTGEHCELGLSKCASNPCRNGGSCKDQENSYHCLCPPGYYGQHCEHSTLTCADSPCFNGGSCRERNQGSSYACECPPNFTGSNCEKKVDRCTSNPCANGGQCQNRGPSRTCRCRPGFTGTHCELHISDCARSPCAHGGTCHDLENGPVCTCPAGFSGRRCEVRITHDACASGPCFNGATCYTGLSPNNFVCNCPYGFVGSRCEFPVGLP", "T1 sequence (Q01705 with tags, fused parts or gaps limits assumed)": "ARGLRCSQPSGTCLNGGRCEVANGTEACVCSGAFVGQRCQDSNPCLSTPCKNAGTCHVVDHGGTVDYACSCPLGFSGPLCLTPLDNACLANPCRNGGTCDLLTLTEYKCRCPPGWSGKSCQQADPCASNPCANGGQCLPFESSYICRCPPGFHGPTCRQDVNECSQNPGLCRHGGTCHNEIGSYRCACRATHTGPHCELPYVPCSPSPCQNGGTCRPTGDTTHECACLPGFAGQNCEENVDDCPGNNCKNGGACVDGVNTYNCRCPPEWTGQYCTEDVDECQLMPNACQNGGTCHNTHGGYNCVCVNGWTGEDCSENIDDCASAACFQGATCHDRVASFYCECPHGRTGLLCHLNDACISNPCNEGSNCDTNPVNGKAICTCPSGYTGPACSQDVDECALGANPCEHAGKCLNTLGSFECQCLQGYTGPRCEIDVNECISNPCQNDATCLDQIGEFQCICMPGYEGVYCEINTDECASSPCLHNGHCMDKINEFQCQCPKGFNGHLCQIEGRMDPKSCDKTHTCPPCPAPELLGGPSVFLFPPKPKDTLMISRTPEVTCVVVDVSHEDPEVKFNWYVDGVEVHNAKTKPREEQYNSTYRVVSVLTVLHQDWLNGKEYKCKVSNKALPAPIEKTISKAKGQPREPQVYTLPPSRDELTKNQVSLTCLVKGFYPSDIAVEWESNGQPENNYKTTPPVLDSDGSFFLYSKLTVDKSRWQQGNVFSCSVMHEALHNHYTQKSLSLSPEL", "assay": "BIAcore assay (surface plasmon resonance), rmDLL4 to immobilized rmNotch1", "assay_type": "binding, murine", "conditions": "1 μg/mL NDI", "procedure": "To determine rmDLL4’s direct interaction with rmNotch1, surface plasmon resonance (OpenSPR, Nicoya) was performed. High-sensitivity nitrilotriacetic acid (HS-NTA) sensors were used. Binding reactions were performed in running buffer (PBS, 0.005% P20, pH 7.4). The HS-NTA sensor was first cleaned by injection with 10 mM HCl (150 μL) followed by injection of 150 μL of 350 mM EDTA. […] For the effect of NDI efficacy on rmDLL4 binding to rmNotch1, the same HS-NTA sensor was used. rmDLL4 at all the concentrations used for binding with rmNotch1 was preincubated with 1 μg/mL NDI for 30 minutes at room temperature, and then the complexes were injected to channels 1 and 2. Binding reactions were carried out with the same running buffer at a flow rate of 40 μL/min at 20°C. Channel 1 was used as a control to evaluate nonspecific binding. The real-time interaction data were analyzed by Trace Drawer (Nicoya). The signals from channel 1 were subtracted from channel 2 coated with the ligand for all samples. Data were globally fitted for 1:1 binding (one-to-one model)."}, "C57BL/6 mice, CLP sepsis": {"tested_on": "C57BL/6 mice, CLP sepsis", "assay": "Serum aspartate aminotransferase (AST), CLP mice", "assay_type": "in vivo, mouse", "parameters": "serum AST (Figure 6B): unit not given here", "conditions": "20 h; for serum AST (Figure 6B): 10 mg/kg NDI, individual mice", "procedure": "Sepsis was induced in mice by cecal ligation and puncture (CLP) as described previously ([45], [46]). Mice were anesthetized with isoflurane to a surgical plane and placed in a supine position. CLP was performed through a midline laparotomy. The abdomen was shaved and disinfected. Through a 2 cm midline incision, the cecum was exposed and then ligated with a 4-0 silk suture 1 cm proximal from the distal cecal extremity. […] A small amount of cecal content was extruded through both holes, and the ligated cecum was returned to the peritoneal cavity. The wound was closed in layers. […] A small amount of cecal content was extruded. […] Vehicle groups received an equivalent volume of PBS, while treatment groups received NDI 10 mg/kg in […] PBS via retro-orbital injection after CLP. This dose was chosen primarily on the basis of our laboratory’s prior experience, we have consistently used this dose in mouse CLP models with reproducible efficacy and without observable toxicity ([39], [44]). Sham-operated animals underwent a laparotomy without CLP. After closure, the mice received a subcutaneous injection of 0.5 mL of normal saline to overcome surgery-induced dehydration. […] All mice were subcutaneously injected with a single dose of 0.1 mg/kg buprenorphine after CLP. Serum levels of alanine aminotransferase, aspartate aminotransferase, and lactate dehydrogenase were determined using specific colorimetric enzymatic assays (Pointe Scientific Inc.) according to the manufacturer’s instructions."}, "[1]": {"tested_on": "DLL4 expression on TLR4^–/– BMDNs", "assay": "Frequency of DLL4^+ neutrophils, TLR4^–/– mouse BMDNs, flow cytometry", "assay_type": "cell-based", "conditions": "12 h", "procedure": "Male 8-week-old C57BL/6 mice were purchased from Charles River Laboratories. TLR4^–/– mice were obtained from Kevin Tracey (Feinstein Institutes for Medical Research). Mice were housed at approximately 23°C with a 12-hour light/12-hour dark cycle and given standard laboratory food and water ad libitum. All experiments were performed following the NIH guidelines for experimental animals. The animal protocol was approved by the Feinstein Institutes’ Institutional Animal Care and Use Committee. Animals were randomly assigned to the sham, vehicle, or adoptive transfer groups.\nMice were anesthetized by 2% isoflurane inhalation, and the femora and tibiae were dissected. […] The purity of the sorted neutrophils was assessed by staining of the cells with APC-Ly6G antibody (clone 1A8, BioLegend) using a BD LSRFortessa flow cytometer (BD Biosciences).\nIn the time course experiments, BMDNs (1 × 10^6) were stimulated with eCIRP (1 μg/mL) for 2, 4, 6, and 12 hours. […] Single-cell suspensions were then stained with APC-conjugated anti–mouse Ly6G (clone 1A8, catalog 127614, BioLegend) and PE-conjugated anti-DLL4 (clone HMD4-1, catalog 130807, BioLegend), and analyzed by flow cytometry (BD LSRFortessa, BD Biosciences) to detect DLL4^+ neutrophils (Ly6G^+DLL4^+). […] The isolated lung cells were counted using a microscope (Eclipse TS100, Nikon). […]"}}, "note": "Values joined by “and” are separate entries in the source; they are usually repeats but may differ in a detail not shown here. Equal entries are not always repeated."}
{"molecule": "ECAGSPCHNGGTCEDGI [NDI]", "values": [{"measurement": "effect on Notch1-DLL4 interaction", "setting": "rmNotch1", "result": "significantly disrupted Notch1-DLL4 interaction"}, {"measurement": "effect on serum AST", "setting": "C57BL/6 mice, CLP sepsis; DLL4^+ neutrophil-injected CLP mice, 10 mg/kg", "result": "significantly reduced the serum levels of hepatic and cell injury markers and proinflammatory cytokines"}, {"measurement": "serum AST (Figure 6B)", "setting": "C57BL/6 mice, CLP sepsis; DLL4^+ neutrophils + CLP", "result": "63.648 and 54.808 and 59.67 and 72.046 and 53.04 and 50.83 and 58.786 and 52.156 and 37.57 and 64.974 and 46.852 and 66.3 and 46.41 and 34.918 and 42.432 and 51.272"}, {"measurement": "serum AST (Figure 6B)", "setting": "C57BL/6 mice, CLP sepsis; DLL4^– neutrophils + CLP", "result": "66.3 and 67.184 and 102.102 and 72.046 and 55.25 and 53.482 and 43.758 and 50.83"}]}
{"molecule": "B1", "values": [{"measurement": "frequency of DLL4^+ neutrophils (Figure 1E)", "setting": "[1]; TLR4^–/– (KO) BMDNs, 1 μg/mL eCIRP, individual replicates", "result": "1.63% and 1.97% and 2.11% and 0.98% and 0.25% and 1.21%"}, {"measurement": "eCIRP-mediated induction of DLL4^+ neutrophils", "setting": "[1]; TLR4^–/– neutrophils, 1 μg/mL", "result": "significantly abrogated in TLR4^–/– neutrophils"}]}
